# Several values for one entry are separate records, joined by “and”; a condition that tells them apart may be missing. Equal values may be shown once.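 1) Cells in 96-well plates. 2) Compound, 48 h, 5 concentrations. 3) Linear interpolation between surrounding doses. 4) Unreached endpoint = highest concentration. GI50 = concentration required for 50% inhibition of growth. TGI: concentration producing complete growth inhibition.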
# How the values were obtained:
# Assay in all cases: growth of human tumour cells (NCI), 48 h
# COLO 205 colon = tested on: COLO 205 colon
# NCI/ADR-RES ovarian = tested on: NCI/ADR-RES ovarian
# HS 578T breast = tested on: HS 578T breast
# HCT-15 colon = tested on: HCT-15 colon
# SK-MEL-28 melanoma = tested on: SK-MEL-28 melanoma
# OVCAR-5 ovarian = tested on: OVCAR-5 ovarian
# UACC-62 melanoma = tested on: UACC-62 melanoma
# SNB-75 CNS = tested on: SNB-75 CNS
# RPMI-8226 leukemia = tested on: RPMI-8226 leukemia
# HL-60(TB) leukemia = tested on: HL-60(TB) leukemia
Structure (SMILES),TGI (COLO 205 colon),TGI (NCI/ADR-RES ovarian),TGI (HS 578T breast),TGI (HCT-15 colon),TGI (SK-MEL-28 melanoma),TGI (OVCAR-5 ovarian),TGI (UACC-62 melanoma),TGI (SNB-75 CNS),TGI (RPMI-8226 leukemia),TGI (HL-60(TB) leukemia),GI50 (COLO 205 colon),GI50 (NCI/ADR-RES ovarian),GI50 (HS 578T breast),GI50 (HCT-15 colon),GI50 (SK-MEL-28 melanoma),GI50 (OVCAR-5 ovarian),GI50 (UACC-62 melanoma),GI50 (SNB-75 CNS),GI50 (RPMI-8226 leukemia),GI50 (HL-60(TB) leukemia)
CC(C)C[C@H]1C(=O)N2CCC[C@H]2[C@]2(O)O[C@](NC(=O)[C@@H]3C=C4c5cccc6[nH]c(Br)c(c56)C[C@H]4N(C)C3)(C(C)C)C(=O)N12,23.5 µM,> 100 µM,> 100 µM,> 100 µM,> 100 µM,> 100 µM,> 100 µM,> 100 µM,> 100 µM,28.1 µM,,,,,,,,,,
Cc1cccc2c(N=Nc3ccccc3[N+](=O)[O-])c(O)[nH]c12,> 63.5 µM,> 31.4 µM,16.4 µM,97.7 µM,> 100 µM,> 69.2 µM,73.7 µM,31.9 µM,> 89.3 µM,> 100 µM,,,,,,,,,,
CN(N=O)C(=O)Nc1ccc(C(=O)O)cc1,> 100 µM,> 100 µM,> 100 µM,> 100 µM,> 100 µM,> 100 µM,> 100 µM,> 100 µM,> 100 µM,> 100 µM,,,,,,,,,,
COc1ccc(Nc2ncc(-c3ccccc3)o2)cc1OC,> 25 µM,> 25 µM,> 25 µM,> 25 µM,> 25 µM,> 25 µM,> 25 µM,> 25 µM,> 25 µM,> 19 µM,18.4 µM,> 22 µM,8.43 µM,10.6 µM,> 25 µM,> 25 µM,> 22.3 µM,5.09 µM,> 24 µM,10.9 µM
C=C1C(=O)O[C@H]2[C@H]1CC/C(COC(=O)C(=O)c1c[nH]c3ccc(Cl)cc13)=C\CC[C@@]1(C)O[C@@H]21,4.58 µM,4.94 µM,29.4 µM,1.63 µM,3.92 µM,5.17 µM,3.54 µM,3.87 µM,3.29 µM,5.09 µM,2.12 µM,1.94 µM,3.52 µM,0.382 µM,1.88 µM,2.1 µM,1.28 µM,1.48 µM,0.422 µM,1.91 µM
COc1cc2oc(-c3cccc(C(=O)Nc4ccc(C)cc4)c3)cc(=O)c2c(OC)c1OC,2.6 µM,> 100 µM,> 100 µM,> 100 µM,4.11 µM,> 100 µM,6.42 µM,5.38 µM,3.54 µM,4.59 µM,1.05 µM,1.46 µM,4.61 µM,1.96 µM,1.67 µM,2.17 µM,2.35 µM,1.16 µM,0.374 µM,1.86 µM
CC(=O)OC1CC2(O)C(CCC3(C)C(c4ccc(=O)oc4)CCC32O)C2(C)CCC(OC3OC(CO)C(O)C(O)C3O)C=C12 (stereo not given),0.274 µM,0.0541 µM,0.701 µM,0.134 µM,0.231 µM,0.168 µM,0.101 µM,0.192 µM,0.162 µM,0.0579 µM,0.0554 µM,0.0172 µM,0.0103 µM,0.0343 µM,0.049 µM,0.044 µM,0.03 µM,0.0333 µM,0.0309 µM,0.0232 µM
CC1=C/C(O)CC(=O)Cc2nc(co2)C(=O)N2CCC=C2C(=O)OC(C(C)C)C(C)/C=C\C(=O)NC/C=C\1 (stereo not given),15 µM and 38.9 µM,> 100 µM,> 100 µM and 59.4 µM,> 89.5 µM and 46.6 µM,44.6 µM and 46.3 µM,71.8 µM and 75.6 µM,> 57.6 µM and 32.3 µM,> 100 µM,> 100 µM and 43.4 µM,> 100 µM,3.09 µM,> 100 µM,> 75.8 µM,28.8 µM,,31.6 µM,20.1 µM,21.4 µM,7.98 µM,14.5 µM
C=C1[C@@H](O)C[C@H]2C(C)(C)C[C@H](Cl)C[C@]2(C)[C@H]1C[C@H](O)[C@H]1CC(=O)NC1=O,0.0564 µM,0.508 µM,0.274 µM,0.596 µM,0.127 µM,0.395 µM,0.15 µM,0.706 µM,0.0805 µM,0.0547 µM,< 0.01 µM,< 0.0447 µM,0.0192 µM,0.0255 µM,0.0161 µM,0.0269 µM,0.0194 µM,0.0287 µM,0.0207 µM,< 0.0107 µM
CNC12C3C4C1C1C2C3C41C(=O)N[C@H](C(=O)N(C)[C@H](C[C@@H](OC(C)=O)c1nc(C(=O)N[C@@H](Cc2ccccc2)C[C@H](C)C(=O)OC)cs1)C(C)C)C1CC1 (stereo not given in full),2.31 µM,> 15 µM,> 10.3 µM,> 15 µM,> 15 µM,> 15 µM,2.98 µM,2.73 µM,1.89 µM,0.135 µM,0.493 µM,> 15 µM,0.354 µM,0.831 µM,2.13 µM,2.2 µM,0.0921 µM,0.129 µM,0.0705 µM,0.0403 µM
OCC#CCCCCOCC#Cc1ccccc1C#CCOCCCCC#CCO,> 100 µM,57.9 µM,65.4 µM,34.7 µM,51.6 µM,> 100 µM,34.3 µM,66.2 µM,87.8 µM,> 100 µM,27.1 µM,23.6 µM,25 µM,16.3 µM,20.1 µM,48.4 µM,18.4 µM,20.6 µM,29.3 µM,36.2 µM
Cc1ccc(NC(=O)N2CCCCC2)cc1[N+](=O)[O-],> 100 µM,> 100 µM,> 100 µM,> 100 µM,> 100 µM,> 100 µM,> 100 µM,> 100 µM,> 100 µM,> 100 µM,> 100 µM,> 100 µM,> 100 µM,> 100 µM,> 100 µM,> 100 µM,> 100 µM,> 100 µM,90.1 µM,> 100 µM
OCc1ncc(-c2ccccc2)s1,> 100 µM,> 100 µM,> 100 µM,> 100 µM,> 100 µM,> 100 µM,> 100 µM,> 100 µM,> 100 µM,> 100 µM,> 100 µM,> 100 µM,> 100 µM,> 100 µM,> 100 µM,> 100 µM,> 100 µM,> 100 µM,> 100 µM,> 100 µM
Clc1ccc(N/N=C(\c2ccccc2)c2ccccn2)nc1,18.1 µM,,,> 38.3 µM and 14.1 µM,> 100 µM,> 100 µM,> 36.6 µM and 15.5 µM,,> 52.6 µM,,0.0308 µM,0.109 µM,0.781 µM,0.0505 µM,0.335 µM,0.234 µM,0.288 µM,0.614 µM,0.128 µM,0.0868 µM
CN(C)CCCN1c2ccc(O)cc2Sc2ccc(Cl)cc21,39.3 µM,30.1 µM,23.1 µM,29 µM,24.7 µM,30.8 µM,21.8 µM,21 µM,21.9 µM,30.8 µM,,,,,,,,,,
N=C1N=C(N)S/C1=C\c1ccc2ncccc2c1,> 25 µM,> 25 µM,> 25 µM,> 25 µM,> 25 µM,> 25 µM,> 25 µM,> 25 µM,> 25 µM,> 25 µM,> 25 µM,> 25 µM,> 19.1 µM,> 25 µM,> 25 µM,> 25 µM,> 25 µM,> 16.3 µM,> 25 µM,> 25 µM
O=C(Nc1nc(-c2ccccc2)cs1)c1cc(O)c(O)c(O)c1,30.1 µM,> 100 µM,83.8 µM,> 100 µM,60.8 µM,47.7 µM,16.5 µM,> 100 µM,22.1 µM,10.1 µM,10.8 µM,3.7 µM,3.37 µM,3.14 µM,7.18 µM,18.2 µM,3.02 µM,1.92 µM,2.99 µM,3.05 µM
C[C@@H]1CC[C@@H]2[C@@H]1[C@H](OC(=O)c1ccc3ccccc3c1)[C@]1(C3CCCCC3)C[C@@H](OC(=O)CO)[C@@]2(C)O1,24.6 µM,19.4 µM,0.0757 µM,22.4 µM,28.5 µM,30 µM,28.5 µM,18.8 µM,22.8 µM,30.6 µM,11.2 µM,0.543 µM,0.023 µM,7.93 µM,13.9 µM,14.8 µM,14.3 µM,0.546 µM,5.03 µM,9.23 µM

# From PubChem BioAssay (NCI)
